Calls of active or inactive are those of the source. The rule behind the calls is not given here.
Legend:
HeLa = assay: Cytotoxicity against human HeLa cells after 48 hrs by MTT assay; assay type: functional, cell-based
HL-60 = assay: Cytotoxicity against human HL60 cells after 48 hrs by MTT assay; assay type: functional, cell-based; settings: HL-60, 48 h
K562 = assay: Cytotoxicity against human K562 cells after 48 hrs by MTT assay; assay type: functional, cell-based; settings: K562, 48 h
A549 = assay: Cytotoxicity against human A549 cells after 48 hrs by MTT assay; assay type: functional, cell-based; settings: A549, 48 h
[1] = molecular target: T1, DNA topoisomerase 2-alpha (Homo sapiens, UniProt P11388); assay: Inhibition of human DNA topoisomerase 2alpha-mediated relaxation of supercoiled pBR322 at 20 uM after 30 mins by agarose gel electrophoresis
[2] = molecular target: T1, DNA topoisomerase 2-alpha; assay: Inhibition of human DNA topoisomerase 2alpha using pBR322 DNA at 2 uM after 30 mins by agarose gel electrophoresis
[3] = molecular target: T1, DNA topoisomerase 2-alpha; settings: 100 uM
Description: Inhibition of human topoisomerase 2alpha assessed as formation of linear form of supercoiled pBR322 DNA at 100 uM after 30 mins by agarose gel electrophoresis

[4] = molecular target: T1, DNA topoisomerase 2-alpha; assay: Ratio of mansonone-E IC50 to compound IC50 for human DNA topoisomerase 2alpha
[5] = molecular target: T1, DNA topoisomerase 2-alpha; assay: Inhibition of human DNA topoisomerase 2alpha using pBR322 DNA after 30 mins by agarose gel electrophoresis
[6] = molecular target: T2, DNA topoisomerase 1 (Homo sapiens) (UniProt P11387); assay: Inhibition of DNA topoisomerase 1 (unknown origin)-mediated relaxation of supercoiled pBR322 at 50 uM after 30 mins by agarose gel electrophoresis
T2 sequence (whole entry): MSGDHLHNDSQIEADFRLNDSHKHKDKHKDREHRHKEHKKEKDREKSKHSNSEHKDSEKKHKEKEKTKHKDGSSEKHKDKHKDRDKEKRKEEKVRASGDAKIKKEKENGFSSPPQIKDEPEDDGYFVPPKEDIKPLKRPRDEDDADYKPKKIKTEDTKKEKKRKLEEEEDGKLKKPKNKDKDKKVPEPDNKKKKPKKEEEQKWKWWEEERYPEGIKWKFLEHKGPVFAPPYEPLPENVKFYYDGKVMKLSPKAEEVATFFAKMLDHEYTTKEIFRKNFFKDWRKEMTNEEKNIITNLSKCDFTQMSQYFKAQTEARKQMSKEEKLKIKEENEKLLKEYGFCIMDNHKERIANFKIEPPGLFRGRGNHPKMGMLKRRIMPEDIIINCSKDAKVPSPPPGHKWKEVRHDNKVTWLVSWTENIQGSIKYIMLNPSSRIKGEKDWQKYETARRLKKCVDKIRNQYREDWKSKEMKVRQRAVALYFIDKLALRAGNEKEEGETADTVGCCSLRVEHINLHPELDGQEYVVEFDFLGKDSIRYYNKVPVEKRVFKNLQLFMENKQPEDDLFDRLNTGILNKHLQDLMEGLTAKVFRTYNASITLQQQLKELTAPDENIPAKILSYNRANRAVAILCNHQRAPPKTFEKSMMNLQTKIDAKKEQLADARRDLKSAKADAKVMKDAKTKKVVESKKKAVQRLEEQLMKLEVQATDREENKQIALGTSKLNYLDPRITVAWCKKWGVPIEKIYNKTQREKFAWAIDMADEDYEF

[7] = molecular target: T1, DNA topoisomerase 2-alpha; assay: Inhibition of human topoisomerase 2alpha assessed as formation of linear form of supercoiled pBR322 DNA at 50 uM after 30 mins by agarose gel electrophoresis

T1 sequence (P11388 whole entry): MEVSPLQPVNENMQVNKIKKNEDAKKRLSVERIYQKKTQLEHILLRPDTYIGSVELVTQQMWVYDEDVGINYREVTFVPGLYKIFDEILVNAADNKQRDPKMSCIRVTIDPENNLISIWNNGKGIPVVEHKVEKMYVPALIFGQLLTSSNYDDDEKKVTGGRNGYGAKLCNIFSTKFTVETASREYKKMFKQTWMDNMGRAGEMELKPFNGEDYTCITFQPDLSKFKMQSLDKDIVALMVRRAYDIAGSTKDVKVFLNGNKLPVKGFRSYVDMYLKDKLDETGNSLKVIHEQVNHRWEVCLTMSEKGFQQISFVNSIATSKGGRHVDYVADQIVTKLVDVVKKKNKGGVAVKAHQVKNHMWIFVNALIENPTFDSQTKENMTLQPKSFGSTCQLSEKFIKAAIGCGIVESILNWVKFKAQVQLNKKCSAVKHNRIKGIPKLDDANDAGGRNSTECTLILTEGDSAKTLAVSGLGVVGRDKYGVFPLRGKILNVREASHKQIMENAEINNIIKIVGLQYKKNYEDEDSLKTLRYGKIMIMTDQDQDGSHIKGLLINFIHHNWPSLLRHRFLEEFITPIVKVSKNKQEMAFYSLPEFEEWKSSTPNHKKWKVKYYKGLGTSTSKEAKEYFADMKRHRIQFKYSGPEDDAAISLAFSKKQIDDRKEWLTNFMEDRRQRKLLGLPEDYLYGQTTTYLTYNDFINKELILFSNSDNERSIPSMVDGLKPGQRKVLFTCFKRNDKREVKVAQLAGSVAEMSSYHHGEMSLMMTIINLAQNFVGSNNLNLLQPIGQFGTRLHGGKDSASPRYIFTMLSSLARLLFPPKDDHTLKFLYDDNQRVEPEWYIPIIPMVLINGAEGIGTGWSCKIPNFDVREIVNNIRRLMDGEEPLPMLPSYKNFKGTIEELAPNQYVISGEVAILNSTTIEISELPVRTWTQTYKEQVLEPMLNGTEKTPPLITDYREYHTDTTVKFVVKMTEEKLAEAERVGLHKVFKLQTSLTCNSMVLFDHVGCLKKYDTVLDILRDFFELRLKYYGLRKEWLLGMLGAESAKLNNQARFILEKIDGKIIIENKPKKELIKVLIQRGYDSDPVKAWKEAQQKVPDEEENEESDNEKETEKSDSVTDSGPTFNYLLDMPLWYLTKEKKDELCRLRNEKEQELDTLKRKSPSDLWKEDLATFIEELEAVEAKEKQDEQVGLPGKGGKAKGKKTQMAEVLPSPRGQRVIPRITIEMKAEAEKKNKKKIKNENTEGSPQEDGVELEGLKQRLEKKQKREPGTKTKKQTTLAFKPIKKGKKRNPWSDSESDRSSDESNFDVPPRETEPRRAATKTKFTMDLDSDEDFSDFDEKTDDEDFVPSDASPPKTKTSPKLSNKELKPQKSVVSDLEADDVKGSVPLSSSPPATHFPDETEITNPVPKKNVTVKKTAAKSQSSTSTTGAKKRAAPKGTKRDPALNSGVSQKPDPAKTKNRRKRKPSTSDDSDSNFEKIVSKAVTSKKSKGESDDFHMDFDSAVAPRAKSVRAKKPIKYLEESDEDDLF

Row | inhibition [1] | inhibition [2] | inhibition [3] | Ratio IC50 [4] | IC50 [5] [µM] | inhibition [6] | inhibition [7] | SMILES | IC50 (HeLa) [µM] | IC50 (HL-60) [µM] | IC50 (K562) [µM] | IC50 (A549) [µM]
1 | Active | Active | – | – | – | – | – | O=C1C(=O)c2cccc3c2C(=C1Cl)OCC3n1cc(-c2ccc(Cl)cc2)nn1 (stereo unspecified) | 67.4 | 12.2 | 20.6 | 77.7
2 | Active | Active | – | 20 | 0.92 | – | – | CCCCCc1ccc(-c2cn(C3COC4=C(Br)C(=O)C(=O)c5cccc3c54)nn2)cc1 (stereo unspecified) | 7.72 | 2.34 | 4.12 | 15
3 | Active | Active | – | – | – | – | – | O=C1C(=O)c2cccc3c2C(=C1Cl)OCC3n1cc(-c2ccccc2)nn1 (stereo unspecified) | 70.2 | 18.4 | 21.4 | 84.5
4 | Active | Active | – | – | – | – | – | CCCc1ccc(-c2cn(C3COC4=C(Cl)C(=O)C(=O)c5cccc3c54)nn2)cc1 (stereo unspecified) | 24.4 | 2.38 | 3.86 | 28.3
5 | Active | Active | – | – | – | – | – | O=C1C(=O)c2cccc3c2C(=C1Br)OCC3n1cc(-c2ccc(Cl)cc2)nn1 (stereo unspecified) | 30.6 | 15.4 | 29 | 50
6 | Active | Active | – | – | – | – | – | CCCCc1ccc(-c2cn(C3COC4=C(Cl)C(=O)C(=O)c5cccc3c54)nn2)cc1 (stereo unspecified) | 18 | 2.55 | 5.67 | 11.4
7 | Active | Active | – | – | – | – | – | CCc1ccc(-c2cn(C3COC4=C(Br)C(=O)C(=O)c5cccc3c54)nn2)cc1 (stereo unspecified) | 16.7 | 4.94 | 14.4 | 22.9
8 | Active | Active | – | – | – | – | – | CCCCc1ccc(-c2cn(C3COC4=C(Br)C(=O)C(=O)c5cccc3c54)nn2)cc1 (stereo unspecified) | 12.5 | 2.55 | 3.87 | 18.3
9 | Active | Active | – | – | – | – | – | CCCCCc1ccc(-c2cn(C3COC4=C(Cl)C(=O)C(=O)c5cccc3c54)nn2)cc1 (stereo unspecified) | 16.9 | 3.54 | 3.51 | 12.8
10 | Active | Active | – | – | – | inactive | – | CCc1ccc(-c2cn(C3COC4=C(Cl)C(=O)C(=O)c5cccc3c54)nn2)cc1 (stereo unspecified) | 29.1 | 2.9 | 10.6 | 29.5
11 | Active | Active | – | – | – | – | inactive | CCCc1ccc(-c2cn(C3COC4=C(Br)C(=O)C(=O)c5cccc3c54)nn2)cc1 (stereo unspecified) | 11.8 | 1.49 | 2.82 | 17.3
12 | Active | Active | – | – | – | – | – | COc1ccc(-c2cn(C3COC4=C(Cl)C(=O)C(=O)c5cccc3c54)nn2)cc1 (stereo unspecified) | 40.9 | 7.08 | 29.8 | 51.1
13 | Active | Active | – | – | – | – | – | O=C1C(=O)c2cccc3c2C(=C1Cl)OCC3n1cc(-c2ccc(F)cc2)nn1 (stereo unspecified) | 48.4 | 10.7 | 16.7 | 43.1
14 | Active | Active | – | – | – | – | – | Cc1ccc(-c2cn(C3COC4=C(Cl)C(=O)C(=O)c5cccc3c54)nn2)cc1 (stereo unspecified) | 32.8 | 19.8 | 18.3 | 55.5

More lines, now with the values behind:

Row | SMILES | inhibition [1] | inhibition [2] | inhibition [3] | Ratio IC50 [4] | IC50 [5] [µM] | inhibition [6] | inhibition [7] | IC50 (HeLa) [µM] | IC50 (HL-60) [µM] | IC50 (K562) [µM] | IC50 (A549) [µM]
15 | COc1cc([C@@H]2c3cc4c(cc3[C@@H](O[C@@H]3O[C@@H]5CO[C@@H](C)O[C@H]5[C@H](O)[C@H]3O)[C@H]3COC(=O)[C@H]23)OCO4)cc(OC)c1O [ETOPOSIDE] | – | – | Active | – | – | – | – | 63.7 | 0.33 | 8.45 | –
16 | O=C1C(=O)c2cccc3c2C(=C1Br)OCC3n1cc(-c2ccc(F)cc2)nn1 (stereo unspecified) | Active | Active | – | – | – | – | – | 30.2 | 12.3 | 35.5 | 50
17 | COC(=O)c1nnn(C2COC3=C(Br)C(=O)C(=O)c4cccc2c43)c1C(=O)OC (stereo unspecified) | Active | Active | – | – | – | – | – | > 50 | > 50 | > 50 | > 50
18 | CCOC(=O)c1cn(C2COC3=C(Cl)C(=O)C(=O)c4cccc2c43)nn1 (stereo unspecified) | Active | Active | – | – | – | – | – | > 100 | > 100 | > 50 | > 100
19 | O=C1C(=O)c2cccc3c2C(=C1Br)OCC3n1cc(-c2ccccn2)nn1 (stereo unspecified) | Active | Active | – | – | – | – | – | 16.2 | 2.11 | 3.23 | 15.3
20 | COC(=O)c1cn(C2COC3=C(Cl)C(=O)C(=O)c4cccc2c43)nn1 (stereo unspecified) | Active | Active | – | – | – | – | – | > 100 | 98 | > 50 | > 100
21 | COc1ccc(-c2cn(C3COC4=C(Br)C(=O)C(=O)c5cccc3c54)nn2)cc1 (stereo unspecified) | Active | Active | – | – | – | – | – | 26.7 | 10.3 | 12.7 | 45.8
22 | COC(=O)c1cn(C2COC3=C(Br)C(=O)C(=O)c4cccc2c43)nn1 (stereo unspecified) | Active | Active | – | – | – | – | – | > 50 | > 50 | > 50 | > 50
23 | CCOC(=O)c1cn(C2COC3=C(Br)C(=O)C(=O)c4cccc2c43)nn1 (stereo unspecified) | Active | Active | – | – | – | – | – | > 50 | > 50 | > 50 | > 50
24 | O=C1C(=O)c2cccc3c2C(=C1Br)OCC3n1cc(-c2ccccc2)nn1 (stereo unspecified) | Active | Active | – | – | – | – | – | 42.9 | 29.3 | 40.1 | 50
25 | O=C1C(=O)c2cccc3c2C(=C1Cl)OCC3n1cc(-c2ccccn2)nn1 (stereo unspecified) | Active | Active | – | – | – | – | – | 28.9 | 2.7 | 5.87 | 17.8
26 | COC(=O)c1nnn(C2COC3=C(Cl)C(=O)C(=O)c4cccc2c43)c1C(=O)OC (stereo unspecified) | Active | Active | – | – | – | – | – | > 100 | > 100 | > 50 | > 100
27 | O=C1C(=O)c2cccc3c2C(=C1Br)OCC3n1cc(C2CC2)nn1 (stereo unspecified) | Active | Active | – | – | – | – | – | 43.1 | 22.7 | 40.2 | > 50
28 | O=C1C(=O)c2cccc3c2C(=C1Cl)OCC3n1cc(C2CC2)nn1 (stereo unspecified) | Active | Active | – | – | – | – | – | > 100 | 50 | 50 | > 100
29 | CC1=C2OCC(C)c3ccc(C)c(c32)C(=O)C1=O (stereo unspecified) [MANSONONE E] | – | – | – | – | 18.6 | – | – | 15.7 | 10.6 | 12.2 | 17.5
30 | Cc1ccc(-c2cn(C3COC4=C(Br)C(=O)C(=O)c5cccc3c54)nn2)cc1 (stereo unspecified) | Active | Active | – | – | – | – | – | 26.6 | 10.3 | 18.8 | 42.9

Reference: ChEMBL document CHEMBL2424646, “Design, synthesis and biological evaluation of novel mansonone E derivatives prepared via CuAAC click chemistry as topoisomerase II inhibitors” (Eur J Med Chem, 2013)
